Literature values in patent publication US20130137759A1, “COMPOSITIONS AND METHODS FOR TREATING PARASITIC DISEASE” (Worcester Polytechnic Institute, priority 2010, published 2013).
One block for each compound: values may come before it.

Assays:
[1] = test system: P. falciparum
[2] = rats, intragastric in 1:9 dimethyl-acetamide-oil, 10 mg kg^−1 (2,320 μg per rat)

- half-life (healthy male volunteers): 1 to 3 h
- tmax (humans, pure AN (Rath et al. 2004)): 2.3 h
Compound: C[C@@H]1CC[C@H]2[C@@H](C)C(=O)O[C@@H]3O[C@@]4(C)CC[C@@H]1[C@]32OO4 [artemisinin]

Compound: COc1cc2oc(-c3ccc(O)c(O)c3)c(OC)c(=O)c2c(O)c1OC [chrysosplenol-D]
- effect on AN activity against P. falciparum ([1]; combined with pure AN): significant enhancement of AN activity
- direct effect on P. falciparum ([1]; flavonoid alone): no direct effect

- Plasma/serum concentration Artemisinin Cmax [2]: 800 ng/mL
Compound: C[C@H]1[C@@H](O)O[C@@H]2O[C@@]3(C)CC[C@H]4[C@H](C)CC[C@@H]1[C@@]24OO3 [dihydroartemisinin]
